Molecular target: Receptor tyrosine-protein kinase erbB-2 (Homo sapiens) (UniProt P04626)
Experiment: Protein Tyrosine Kinase, ERBB2 (HER2) Eurofins-Panlabs enzyme assay
Settings: Compound concentration 10.0 uM

Sequence of Receptor tyrosine-protein kinase erbB-2 (Homo sapiens) (P04626 whole entry): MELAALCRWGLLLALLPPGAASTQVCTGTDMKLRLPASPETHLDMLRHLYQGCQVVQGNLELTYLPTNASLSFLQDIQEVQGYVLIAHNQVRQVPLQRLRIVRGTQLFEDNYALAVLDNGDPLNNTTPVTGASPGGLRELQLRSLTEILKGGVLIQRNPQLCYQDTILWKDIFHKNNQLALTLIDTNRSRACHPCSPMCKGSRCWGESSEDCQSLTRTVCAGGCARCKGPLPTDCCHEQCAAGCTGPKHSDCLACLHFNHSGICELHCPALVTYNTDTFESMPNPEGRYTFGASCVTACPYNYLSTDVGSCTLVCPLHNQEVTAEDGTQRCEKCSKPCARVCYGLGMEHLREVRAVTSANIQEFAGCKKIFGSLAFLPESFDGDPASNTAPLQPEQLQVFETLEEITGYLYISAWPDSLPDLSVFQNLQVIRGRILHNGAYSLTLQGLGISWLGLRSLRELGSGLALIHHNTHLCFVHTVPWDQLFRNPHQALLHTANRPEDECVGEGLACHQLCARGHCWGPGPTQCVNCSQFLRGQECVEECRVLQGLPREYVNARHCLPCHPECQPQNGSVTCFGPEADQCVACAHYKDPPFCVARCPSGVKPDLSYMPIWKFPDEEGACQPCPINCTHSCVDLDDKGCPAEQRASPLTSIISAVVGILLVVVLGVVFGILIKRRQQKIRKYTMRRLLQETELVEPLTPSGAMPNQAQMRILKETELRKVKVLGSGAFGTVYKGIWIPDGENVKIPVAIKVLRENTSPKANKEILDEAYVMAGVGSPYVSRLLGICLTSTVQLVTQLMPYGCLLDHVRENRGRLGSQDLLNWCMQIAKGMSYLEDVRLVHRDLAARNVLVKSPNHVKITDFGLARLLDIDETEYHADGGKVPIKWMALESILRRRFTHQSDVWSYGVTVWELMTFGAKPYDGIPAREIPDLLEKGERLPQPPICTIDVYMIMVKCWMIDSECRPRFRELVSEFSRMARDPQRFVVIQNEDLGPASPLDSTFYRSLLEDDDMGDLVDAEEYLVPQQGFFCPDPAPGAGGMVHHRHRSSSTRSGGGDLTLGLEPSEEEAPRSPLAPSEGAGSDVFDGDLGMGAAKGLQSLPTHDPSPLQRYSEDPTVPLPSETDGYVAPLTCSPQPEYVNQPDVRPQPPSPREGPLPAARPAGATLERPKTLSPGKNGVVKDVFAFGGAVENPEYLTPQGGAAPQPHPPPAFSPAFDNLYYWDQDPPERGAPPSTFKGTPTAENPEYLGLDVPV

- inhibition: -9%
SMILES: Cc1cc(OC2CCS(=O)(=O)CC2)cc(C)c1-c1cccc(COc2ccc(CCC(=O)O)c(F)c2)c1

From ChEMBL document CHEMBL5058642, “Data for DCP probe TP-051” (2022)
